Here are results for 5 compounds from ChEMBL document CHEMBL3217729, “Sangamides, a new class of cyclophilin-inhibiting host-targeted antivirals for treatment of HCV infection” (Medchemcomm, 2012).

Structures are written as SMILES. Values after ≈ are worked out from the molar mass of the structure shown. Active and inactive are the calls of the source.

Data set [1] addresses T1, ATP-binding cassette sub-family C member 2 (Homo sapiens, UniProt Q92887). As to the kind of experiment: Inhibition of ATPase activity of MRP2 (unknown origin) expressed in membrane assessed as amount of phosphate released using probenecid as substrate at 14 uM by molybdenum blue assay.
Another data set in a line: in vitro. As to conditions: mouse, liver microsomes. (In general: Liver microsomes are vesicles of endoplasmic reticulum, rich in cytochrome P450 enzymes.)
For data set [2], the target named is T2, Peptidyl-prolyl cis-trans isomerase A (Homo sapiens, UniProt P62937). Nature of the data set: Inhibition of recombinant GST-tagged CypA (unknown origin)/HCV Con1 NS5A-His interaction after 16 hrs by ELISA. (In general: In an ELISA, binding on a coated surface is turned into a signal by an enzyme label.)
In data set [3] the test system is Hepatitis C virus. Nature of the data set: Antiviral activity against Hepatitis C virus genotype 2a JFH-1 infected in human Huh7 cells assessed as decrease in subgenomic RNA level after 72 hrs by RT-PCR analysis. The format is functional, cell-based, Hepacivirus hominis. As to conditions: genotype 2a JFH-1, Huh-7, 72 h.
In data set [4] the test system is Hepatitis C virus. As to the kind of experiment: Antiviral activity against Hepatitis C virus genotype 1b Con1 infected in human Huh7 cells assessed as decrease in subgenomic RNA level after 72 hrs by RT-PCR analysis. It counts as functional, cell-based, Hepacivirus hominis. As to conditions: genotype 1b Con1, Huh-7, 72 h.
Data set [5] deals with T2, Peptidyl-prolyl cis-trans isomerase A. Nature of the data set: Inhibition of PPIase activity of recombinant CypA (unknown origin) assessed as chymotrypsin-mediated N-succinyl-Ala-Ala-Pro-Phe-p-nitroanilide hydrolysis after 1 hr by spectrophotometric analysis.
The nature of data set [6]: Half life in human liver microsomes at 1 uM by LC-MS/MS analysis. It counts as ADME.
The nature of a further data set: physchem. As to conditions: n-octanol/potassium phosphate buffer, pH 7.4.
A short description of data set [7]: Selectivity index, ratio of CC50 for human Huh5-2 cells to EC50 for Hepatitis C virus genotype 1b I389luc-ubi-neo/NS3-3'/5.1 subgenomic replicon infected in human Huh5-2 cells. The format is toxicity, cell-based, Huh-5-2. As to conditions: read-out: Ratio CC50/EC50.
The nature of data set [8]: Cytostatic activity against human Huh5-2 cells assessed as decrease in cell proliferation after 3 days by MTS method. The format is ADME, cell-based, Huh-5-2. In general terms: Tetrazolium assays rely on reduction of a dye to a coloured formazan, in cell work by metabolically active cells.
A short description of data set [9]: Solubility of the compound in phosphate buffered saline at pH 7.4 after 4 hrs by LC-MS/MS analysis.
Another data set deals with PBMC. As to the kind of experiment: Immunosuppressive activity in human PBMC isolated from two individuals assessed as inhibition of proliferation using [3H]thymidine by mixed lymphocyte reaction assay. It counts as cell-based.
Data set [10] can be described thus: Half life in human hepatocytes at 1 uM by LC-MS/MS analysis. The format is ADME, cell-based, Hepatocyte.
Data set [11] in a line: Percentage bound in human plasma at 1 uM after 5 hrs by dialysis chamber method. The format is ADME, cell-free. The following applies: read-out: PPB (converted).
Data set [12] relates to Hepatitis C virus. As to the kind of experiment: Antiviral activity against Hepatitis C virus genotype 1a H77 infected in human Huh7 cells assessed as decrease in subgenomic RNA level after 72 hrs by RT-PCR analysis. The format is functional, cell-based, Hepacivirus hominis. As to conditions: genotype 1a H77, Huh-7, 72 h.
Data set [13] deals with Hepatitis C virus. Nature of the data set: Antiviral activity against Hepatitis C virus genotype 1b I389luc-ubi-neo/NS3-3'/5.1 subgenomic replicon infected in human Huh5-2 cells after 4 days by luciferase assay. The format is functional, cell-based, Hepacivirus hominis. As to conditions: Huh-5-2, 96 h.
Another data set deals with Liver. Nature of the data set: Drug level in CD-1 mouse liver at 5 mg/kg, po administered as single dose measured per gm of tissue for 24 hrs post-dose by LC-MS/MS analysis. It counts as ADME, organism-based. More on the design: dose 5 mg/kg, route oral. The following applies: in vivo.
The target of data set [14] is ATP-dependent translocase ABCB1 (Homo sapiens, UniProt P08183). As to the kind of experiment: Inhibition of MDR1 (unknown origin) expressed in MDCK1 cells assessed as reduction of loperamide substrate permeability up to 50 uM after 60 mins by LC-MS/MS analysis. It counts as ADME, cell-based. As to conditions: mdck1, 1 h.
Data set [15] is described as follows: Ratio of drug level in liver to blood in CD-1 mouse at 5 mg/kg, po administered as single dose measured for 24 hrs post-dose by LC-MS/MS analysis. The format is ADME, organism-based. More on the design: dose 5 mg/kg, route oral. The following applies: liver and blood.
For data set [16], the system named is Hepatitis C virus. Nature of the data set: Antiviral activity against Hepatitis C virus genotype 1b Con1 infected in human Huh7 cells assessed as viral rebound by measuring replicon RNA content at 0.5 to 1 uM after drug removal by RT-qPCR analysis. As to conditions: Hepacivirus hominis, Huh-7. It counts as functional, cell-based.
Data set [17] addresses T1, ATP-binding cassette sub-family C member 2. As to the kind of experiment: Inhibition of ATPase activity of MRP2 (unknown origin) expressed in membrane assessed as amount of phosphate released using probenecid as substrate up to 50 uM by molybdenum blue assay.
Data set [18] is described as follows: Drug level in CD-1 mouse blood at 5 mg/kg, po administered as single dose measured for 24 hrs post-dose by LC-MS/MS analysis. The arrangement: dose 5 mg/kg, route oral. As to conditions: read-out: Drug uptake. It counts as ADME, organism-based.

As a reminder, the half-life is the time needed for the level to fall by half in the phase considered. Low readings indicate rapid decline, high ones slow decline. The IC50 is the concentration that inhibits the measured activity by half. The EC50 is the concentration at which the effect is half-maximal. By logD is commonly meant lipophilicity at a set pH, counting ionised and neutral species. As usually defined, the CC50 is the concentration at which the toxic effect on the cells reaches its halfway point. As usually defined, the solubility is the dissolved amount per volume that the medium holds. A low value points to a poorly soluble substance. Usually EC90 stands for the concentration needed for an effect of 90%. Lower therefore signals greater potency. What is called Kp is tissue or fluid exposure divided by exposure in the circulation.

T2 sequence (P62937 whole entry): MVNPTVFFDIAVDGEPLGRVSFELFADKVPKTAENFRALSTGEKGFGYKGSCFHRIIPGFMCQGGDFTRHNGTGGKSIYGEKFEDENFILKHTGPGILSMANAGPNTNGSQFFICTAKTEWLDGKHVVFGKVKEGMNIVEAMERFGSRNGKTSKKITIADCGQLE
T1 sequence (Q92887 whole entry): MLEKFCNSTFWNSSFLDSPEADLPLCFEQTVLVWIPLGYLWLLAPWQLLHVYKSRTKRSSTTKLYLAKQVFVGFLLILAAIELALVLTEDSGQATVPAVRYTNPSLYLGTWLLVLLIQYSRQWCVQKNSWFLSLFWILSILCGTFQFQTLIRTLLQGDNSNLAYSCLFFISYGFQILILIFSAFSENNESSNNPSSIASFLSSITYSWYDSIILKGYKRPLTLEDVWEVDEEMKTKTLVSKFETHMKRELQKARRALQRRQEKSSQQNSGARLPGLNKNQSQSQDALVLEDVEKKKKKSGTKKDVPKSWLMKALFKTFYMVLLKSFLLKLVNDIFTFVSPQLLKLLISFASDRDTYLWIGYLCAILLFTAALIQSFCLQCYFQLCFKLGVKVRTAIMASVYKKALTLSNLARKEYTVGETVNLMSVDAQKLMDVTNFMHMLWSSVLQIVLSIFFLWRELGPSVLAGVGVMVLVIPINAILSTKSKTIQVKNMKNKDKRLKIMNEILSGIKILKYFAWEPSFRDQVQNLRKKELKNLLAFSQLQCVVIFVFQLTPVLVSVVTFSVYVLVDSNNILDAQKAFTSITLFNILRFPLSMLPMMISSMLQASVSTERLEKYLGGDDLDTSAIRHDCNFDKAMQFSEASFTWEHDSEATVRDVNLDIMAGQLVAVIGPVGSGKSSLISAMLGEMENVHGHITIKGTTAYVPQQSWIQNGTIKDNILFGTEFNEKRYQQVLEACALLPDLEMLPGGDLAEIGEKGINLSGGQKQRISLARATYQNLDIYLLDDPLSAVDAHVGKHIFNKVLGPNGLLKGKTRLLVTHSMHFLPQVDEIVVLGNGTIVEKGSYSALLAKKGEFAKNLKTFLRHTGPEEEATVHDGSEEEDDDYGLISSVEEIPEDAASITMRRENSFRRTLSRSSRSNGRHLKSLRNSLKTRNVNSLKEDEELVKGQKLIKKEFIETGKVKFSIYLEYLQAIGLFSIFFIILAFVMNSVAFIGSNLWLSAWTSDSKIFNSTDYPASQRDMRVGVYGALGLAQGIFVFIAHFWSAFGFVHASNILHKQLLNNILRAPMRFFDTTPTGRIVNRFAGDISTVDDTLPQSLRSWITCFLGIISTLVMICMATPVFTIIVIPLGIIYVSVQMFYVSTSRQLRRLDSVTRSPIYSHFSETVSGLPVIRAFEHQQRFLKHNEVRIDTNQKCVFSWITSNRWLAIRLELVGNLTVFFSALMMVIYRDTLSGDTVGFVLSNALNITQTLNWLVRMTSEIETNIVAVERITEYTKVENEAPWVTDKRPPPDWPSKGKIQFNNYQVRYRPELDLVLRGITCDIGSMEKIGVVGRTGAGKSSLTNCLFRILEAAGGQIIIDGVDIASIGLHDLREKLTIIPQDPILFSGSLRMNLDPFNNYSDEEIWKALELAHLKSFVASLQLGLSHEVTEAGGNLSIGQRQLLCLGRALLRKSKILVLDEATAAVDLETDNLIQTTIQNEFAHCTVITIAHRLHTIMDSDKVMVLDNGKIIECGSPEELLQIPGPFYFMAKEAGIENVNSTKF
ATP-dependent translocase ABCB1, sequence (P08183 whole entry): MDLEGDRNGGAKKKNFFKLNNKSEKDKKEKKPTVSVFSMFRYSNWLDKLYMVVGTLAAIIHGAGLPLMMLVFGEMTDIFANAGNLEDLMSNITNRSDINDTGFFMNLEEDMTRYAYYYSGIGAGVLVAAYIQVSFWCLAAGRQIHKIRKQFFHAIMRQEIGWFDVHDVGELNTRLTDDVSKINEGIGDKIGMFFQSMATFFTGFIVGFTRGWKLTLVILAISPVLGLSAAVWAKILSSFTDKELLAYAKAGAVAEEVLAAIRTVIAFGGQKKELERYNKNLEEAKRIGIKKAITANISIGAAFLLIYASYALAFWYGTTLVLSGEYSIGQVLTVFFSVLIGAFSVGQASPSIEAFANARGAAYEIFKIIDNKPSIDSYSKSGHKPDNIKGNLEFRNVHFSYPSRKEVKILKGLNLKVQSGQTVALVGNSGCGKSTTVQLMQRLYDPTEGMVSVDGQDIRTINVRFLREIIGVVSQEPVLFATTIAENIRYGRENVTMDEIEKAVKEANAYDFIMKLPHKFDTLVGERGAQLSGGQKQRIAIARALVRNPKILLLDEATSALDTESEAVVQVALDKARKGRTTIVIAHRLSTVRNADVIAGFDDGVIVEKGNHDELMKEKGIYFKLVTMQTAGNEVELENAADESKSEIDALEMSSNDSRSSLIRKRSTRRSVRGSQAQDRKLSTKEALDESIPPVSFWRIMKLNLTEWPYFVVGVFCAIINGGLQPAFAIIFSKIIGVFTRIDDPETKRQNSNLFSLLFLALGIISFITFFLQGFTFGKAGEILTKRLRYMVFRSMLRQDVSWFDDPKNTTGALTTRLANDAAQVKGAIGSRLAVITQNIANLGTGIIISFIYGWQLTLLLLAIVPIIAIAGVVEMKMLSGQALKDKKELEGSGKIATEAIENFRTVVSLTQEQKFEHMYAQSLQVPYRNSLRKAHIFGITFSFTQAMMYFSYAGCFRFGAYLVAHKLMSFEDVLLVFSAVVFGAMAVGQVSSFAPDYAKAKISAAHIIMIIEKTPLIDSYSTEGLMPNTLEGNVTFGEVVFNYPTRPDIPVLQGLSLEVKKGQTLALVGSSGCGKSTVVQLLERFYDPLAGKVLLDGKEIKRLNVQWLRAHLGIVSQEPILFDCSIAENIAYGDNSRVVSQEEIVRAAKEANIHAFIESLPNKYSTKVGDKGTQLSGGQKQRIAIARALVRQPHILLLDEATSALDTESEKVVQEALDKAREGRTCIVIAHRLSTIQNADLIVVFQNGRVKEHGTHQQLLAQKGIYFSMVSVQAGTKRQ
Description for in vitro: Half life in mouse liver microsomes at 1 uM by LC-MS/MS analysis

For the compound `CCc1oc2ccccc2c1C(=O)c1cc(Br)c(O)c(Br)c1` [BENZBROMARONE], in data set [1], the “inhibition (INH)” value was “Active”.
As to `CON(C)C(=O)/C=C/C=C(\C)[C@@H]1C/C=C/C=C/[C@H](O)[C@H](C)[C@@H](O)[C@@H](CCC(C)=O)C(=O)N[C@@H](C(C)C)C(=O)N[C@@H](Cc2cccc(O)c2)C(=O)N2CCCC(N2)C(=O)O1` (stereo partly specified), the half-life at 1 µM in “in vitro” was 17.5 min; in data set [6], 26.5 min; in [10], more than 240 min. The results for the IC50 (in [2]; in [5]; with PBMC) were 200 nM, 1.1 nM and 1060 nM, respectively. In addition, the EC50 stood at 247 nM in the data set on Hepatitis C virus [3], 128 nM with Hepatitis C virus [4], 156 nM in the data set on Hepatitis C virus [12] and 162 nM with Hepatitis C virus [13]. This compound also gave a logD at 1 h in “physchem” of 2.3. Also, in data set [7], the selectivity ratio was more than 617. The CC50 at 72 h in data set [8] was more than 100000 nM. In addition, the solubility at 4 h in data set [9] is more than 100 µM. For the same compound, the fraction unbound at 5 h, 1 µM in data set [11] is 0.73. The EC90 in the data set with Hepatitis C virus [13] is 920 nM.
For `CC(=O)CC[C@H]1C(=O)N[C@@H](C(C)C)C(=O)N[C@@H](Cc2cccc(O)c2)C(=O)N2CCCC(N2)C(=O)O[C@H](/C(C)=C/C=C/C(=O)Nc2ccccn2)C/C=C/C=C/[C@H](O)[C@H](C)[C@H]1O` (stereo in doubt), the half-life at 1 µM in “in vitro” came to 8.8 min; in data set [6], 4.4 min; in data set [10], 95 min. The results for the IC50 in [2] and in [5] were 390 nM and 4.1 nM, respectively. Also, the selectivity ratio in data set [7] worked out at 240. Besides, in data set [8], the CC50 at 72 h was 40000 nM. In [9], this compound came in with a solubility at 4 h of 61 µM (≈ 52.3 µg/mL). The compound further returned a concentration for a half-maximal effect (EC50) with Hepatitis C virus [13] of 167 nM. The compound also returned an EC90 in the data set on Hepatitis C virus [13] of 740 nM.
As for `CC[C@H]1C[C@H](C)[C@@]2(NC1=O)O[C@@H](C[C@H](O)[C@@H](C)CC/C=C/C=C(\C)[C@@H]1C/C=C/C=C/[C@H](O)[C@H](C)[C@@H](O)[C@@H](CCC(C)=O)C(=O)N[C@@H](C(C)C)C(=O)N[C@@H](Cc3cccc(O)c3)C(=O)N3CCCC(N3)C(=O)O1)[C@H](C)[C@H](O)[C@@H]2C` (stereo partly specified), the half-life at 1 µM in the data set “in vitro” came out at 4 min; in data set [6], 7.9 min; in data set [10], 145 min. The EC50 in the data set with Hepatitis C virus [3] worked out at 247 nM; in the data set on Hepatitis C virus [4], 222 nM; with Hepatitis C virus [12], 301 nM; in the data set with Hepatitis C virus [13], 318 nM. This compound also came in with a logD at 1 h in “physchem” of more than 3.7. For the same compound, the CC50 at 72 h in data set [8] is 9100 nM. In addition, the concentration in solution in [9] (solubility at 4 h) was 45 µM (≈ 49.1 µg/mL). Besides, the IC50 with PBMC came to 215 nM. Besides, the fraction unbound at 5 h, 1 µM in data set [11] is less than 0.01. In addition, in the data set with Hepatitis C virus [13], the EC90 was determined as 5500 nM.
Take `CC(=O)CC[C@H]1C(=O)N[C@@H](C(C)C)C(=O)N[C@@H](Cc2cccc(O)c2)C(=O)N2CCCC(N2)C(=O)O[C@H](/C(C)=C/C=C/C(=O)N2CCCCO2)C/C=C/C=C/[C@H](O)[C@H](C)[C@H]1O` (stereo partly specified): the half-life at 1 µM in “in vitro” was found to be 5.8 min; in data set [6] it was 10.6 min; in data set [10] it was 220 min. For the same compound, the IC50 in data set [2] was determined as 360 nM; in data set [5] it was 2.7 nM; with PBMC it was 1450 nM. In addition, the EC50 with Hepatitis C virus [3] was determined as 89 nM; in the data set on Hepatitis C virus [4], 58 nM; in the data set with Hepatitis C virus [12], 63 nM; with Hepatitis C virus [13], 125 nM. For the same compound, in “physchem”, the logD at 1 h was 2.6. Besides, the Drug uptake in the data set on Liver is listed as 20 ng. Moreover, the selectivity ratio in [7] is more than 800. Moreover, the “inhibition (INH)” value in data set [14] and in data set [17] was “Not Active” throughout. For the same compound, in [15], the Kp at 24 h stood at 3. Besides, the CC50 at 72 h in data set [8] is more than 100000 nM. Moreover, the solubility at 4 h in [9] was more than 100 µM. In addition, in the data set with Hepatitis C virus [16], the outcome was Active. For the same compound, the 90% effect level in the data set with Hepatitis C virus [13] (EC90) was put at 690 nM. In addition, the concentration at 24 h in [18] came out at 20 ng/mL.
